Reference: ChEMBL document CHEMBL5291721, “A preclinical secondary pharmacology resource illuminates target-adverse drug reaction associations of marketed drugs” (Nat Commun, 2023)
Where a SMILES comes first, the peptide text is derived from it.

Assays:
[1] = biological target: 5-hydroxytryptamine receptor 2A (Homo sapiens, UniProt P28223); type: functional, cell-based
[2] = biological target: Melanocortin receptor 3 (Homo sapiens, UniProt P41968)
[3] = biological target: T1, Progesterone receptor (Homo sapiens, UniProt P06401); type: functional
T1 sequence (P06401 whole entry): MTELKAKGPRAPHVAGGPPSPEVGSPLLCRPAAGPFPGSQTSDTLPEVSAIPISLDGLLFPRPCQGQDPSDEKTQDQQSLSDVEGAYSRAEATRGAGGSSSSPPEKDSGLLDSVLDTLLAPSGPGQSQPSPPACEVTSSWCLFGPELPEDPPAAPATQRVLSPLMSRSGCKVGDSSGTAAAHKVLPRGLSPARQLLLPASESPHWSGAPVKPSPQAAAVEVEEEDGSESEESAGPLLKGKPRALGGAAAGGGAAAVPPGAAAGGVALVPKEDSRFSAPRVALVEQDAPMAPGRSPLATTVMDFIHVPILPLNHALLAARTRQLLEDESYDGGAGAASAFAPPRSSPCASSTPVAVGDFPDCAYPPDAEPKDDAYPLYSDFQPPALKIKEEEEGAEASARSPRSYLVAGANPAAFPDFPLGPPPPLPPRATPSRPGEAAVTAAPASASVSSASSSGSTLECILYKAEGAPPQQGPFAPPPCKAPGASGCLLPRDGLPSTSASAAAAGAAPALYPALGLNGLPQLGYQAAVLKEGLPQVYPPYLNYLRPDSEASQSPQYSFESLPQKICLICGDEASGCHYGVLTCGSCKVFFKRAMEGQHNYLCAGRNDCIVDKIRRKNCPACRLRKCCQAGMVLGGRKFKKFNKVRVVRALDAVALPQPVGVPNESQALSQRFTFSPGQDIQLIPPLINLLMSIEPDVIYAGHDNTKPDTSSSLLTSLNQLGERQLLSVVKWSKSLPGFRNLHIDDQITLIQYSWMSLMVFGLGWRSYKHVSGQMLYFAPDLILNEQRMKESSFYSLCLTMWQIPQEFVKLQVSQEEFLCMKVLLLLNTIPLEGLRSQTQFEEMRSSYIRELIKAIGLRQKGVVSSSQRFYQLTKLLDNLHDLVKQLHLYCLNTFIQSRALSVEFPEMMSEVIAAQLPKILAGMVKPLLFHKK

[4] = biological target: Cannabinoid receptor 1 (Homo sapiens, UniProt P21554)
[5] = biological target: Mu-type opioid receptor (Homo sapiens, UniProt P35372); test: biochemical; type: functional
[6] = biological target: Kappa-type opioid receptor (Homo sapiens, UniProt P41145)
[7] = biological target: Vasopressin V1a receptor (Homo sapiens, UniProt P37288)
[8] = biological target: 3',5'-cyclic-AMP phosphodiesterase 4D (Homo sapiens, UniProt Q08499); type: functional
[9] = biological target: T2, B2 bradykinin receptor (Homo sapiens, UniProt P30411)
T2 sequence (P30411 whole entry): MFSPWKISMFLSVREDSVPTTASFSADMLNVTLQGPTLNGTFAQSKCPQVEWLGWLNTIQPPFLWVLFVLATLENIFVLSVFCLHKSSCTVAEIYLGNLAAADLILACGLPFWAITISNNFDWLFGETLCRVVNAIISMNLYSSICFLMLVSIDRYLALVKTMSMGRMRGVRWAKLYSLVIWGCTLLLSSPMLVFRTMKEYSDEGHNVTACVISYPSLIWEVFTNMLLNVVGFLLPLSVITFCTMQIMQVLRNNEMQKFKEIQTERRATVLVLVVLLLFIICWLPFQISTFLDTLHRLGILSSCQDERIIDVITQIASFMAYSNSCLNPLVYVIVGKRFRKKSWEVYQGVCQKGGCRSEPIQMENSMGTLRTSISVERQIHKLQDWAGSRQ

[10] = biological target: T3, 5-hydroxytryptamine receptor 1A (Homo sapiens, UniProt P08908); type: functional, cell-based
T3 sequence (P08908 whole entry): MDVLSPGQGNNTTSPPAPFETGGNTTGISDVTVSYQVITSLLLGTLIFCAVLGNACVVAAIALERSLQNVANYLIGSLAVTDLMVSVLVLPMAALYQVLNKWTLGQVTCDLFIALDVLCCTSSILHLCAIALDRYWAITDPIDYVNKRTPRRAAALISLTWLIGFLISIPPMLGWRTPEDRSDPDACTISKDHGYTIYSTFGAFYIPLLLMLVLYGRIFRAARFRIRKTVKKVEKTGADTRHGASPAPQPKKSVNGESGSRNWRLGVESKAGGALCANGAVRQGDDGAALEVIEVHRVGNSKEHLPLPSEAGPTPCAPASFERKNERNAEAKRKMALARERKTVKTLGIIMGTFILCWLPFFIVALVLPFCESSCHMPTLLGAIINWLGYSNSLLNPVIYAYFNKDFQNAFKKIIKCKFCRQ

[11] = biological target: T3, 5-hydroxytryptamine receptor 1A; type: functional, cell-based; remark: listed apart in the source
[12] = biological target: Melanocortin receptor 4 (Homo sapiens, UniProt P32245)
Also: assay procedure not described here.

Melanocortin receptor 3, sequence (P41968 whole entry): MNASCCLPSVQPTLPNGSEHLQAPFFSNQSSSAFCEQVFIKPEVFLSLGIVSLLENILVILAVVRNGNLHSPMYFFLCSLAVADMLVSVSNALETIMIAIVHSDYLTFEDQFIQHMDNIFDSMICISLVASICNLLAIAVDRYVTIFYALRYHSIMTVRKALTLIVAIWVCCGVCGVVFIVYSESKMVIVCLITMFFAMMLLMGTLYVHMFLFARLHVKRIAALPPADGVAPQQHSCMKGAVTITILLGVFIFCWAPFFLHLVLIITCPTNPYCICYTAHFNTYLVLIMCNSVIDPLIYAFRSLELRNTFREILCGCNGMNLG
Kappa-type opioid receptor, sequence (P41145 whole entry): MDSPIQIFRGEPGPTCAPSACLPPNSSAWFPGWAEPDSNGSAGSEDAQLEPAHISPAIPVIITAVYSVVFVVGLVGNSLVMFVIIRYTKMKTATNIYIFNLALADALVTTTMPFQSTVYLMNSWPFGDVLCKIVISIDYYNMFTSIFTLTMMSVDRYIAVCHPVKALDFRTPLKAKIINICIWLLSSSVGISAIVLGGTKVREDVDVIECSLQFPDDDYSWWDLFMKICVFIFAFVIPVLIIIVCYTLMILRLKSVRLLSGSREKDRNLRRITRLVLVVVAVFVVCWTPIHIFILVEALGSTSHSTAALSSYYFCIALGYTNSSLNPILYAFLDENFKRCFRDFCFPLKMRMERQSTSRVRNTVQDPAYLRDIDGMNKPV
3',5'-cyclic-AMP phosphodiesterase 4D, sequence (Q08499 whole entry): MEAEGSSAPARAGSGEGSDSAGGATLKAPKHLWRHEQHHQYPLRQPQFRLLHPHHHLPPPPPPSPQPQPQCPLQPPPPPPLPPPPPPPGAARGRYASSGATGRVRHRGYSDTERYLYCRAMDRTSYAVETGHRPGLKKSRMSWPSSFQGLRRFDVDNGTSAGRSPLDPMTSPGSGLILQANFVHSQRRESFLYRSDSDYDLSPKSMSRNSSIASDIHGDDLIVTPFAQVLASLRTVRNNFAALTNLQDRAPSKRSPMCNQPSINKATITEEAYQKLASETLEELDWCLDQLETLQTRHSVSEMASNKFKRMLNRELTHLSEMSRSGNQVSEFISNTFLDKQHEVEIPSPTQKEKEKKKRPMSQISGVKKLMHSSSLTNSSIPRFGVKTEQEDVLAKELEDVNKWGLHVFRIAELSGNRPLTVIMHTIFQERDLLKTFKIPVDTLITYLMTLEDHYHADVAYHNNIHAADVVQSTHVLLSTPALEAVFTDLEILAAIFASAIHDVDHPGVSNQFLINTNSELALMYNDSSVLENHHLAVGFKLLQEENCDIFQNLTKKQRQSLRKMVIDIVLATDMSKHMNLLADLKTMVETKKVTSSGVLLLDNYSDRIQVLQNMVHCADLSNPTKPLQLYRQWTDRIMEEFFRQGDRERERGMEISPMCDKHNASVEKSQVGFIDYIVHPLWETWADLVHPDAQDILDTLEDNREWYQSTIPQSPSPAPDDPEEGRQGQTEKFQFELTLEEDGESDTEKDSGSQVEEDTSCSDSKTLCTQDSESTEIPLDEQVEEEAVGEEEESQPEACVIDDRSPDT
Melanocortin receptor 4, sequence (P32245 whole entry): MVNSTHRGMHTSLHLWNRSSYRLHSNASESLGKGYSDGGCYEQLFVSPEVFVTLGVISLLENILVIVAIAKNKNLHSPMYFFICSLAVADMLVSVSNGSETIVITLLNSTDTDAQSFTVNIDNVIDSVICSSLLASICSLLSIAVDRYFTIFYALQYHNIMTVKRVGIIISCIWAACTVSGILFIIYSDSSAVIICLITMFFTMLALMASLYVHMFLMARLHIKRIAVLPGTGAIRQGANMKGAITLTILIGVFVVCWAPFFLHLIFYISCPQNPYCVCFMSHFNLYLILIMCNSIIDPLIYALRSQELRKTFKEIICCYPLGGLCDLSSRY
5-hydroxytryptamine receptor 2A, sequence (P28223 whole entry): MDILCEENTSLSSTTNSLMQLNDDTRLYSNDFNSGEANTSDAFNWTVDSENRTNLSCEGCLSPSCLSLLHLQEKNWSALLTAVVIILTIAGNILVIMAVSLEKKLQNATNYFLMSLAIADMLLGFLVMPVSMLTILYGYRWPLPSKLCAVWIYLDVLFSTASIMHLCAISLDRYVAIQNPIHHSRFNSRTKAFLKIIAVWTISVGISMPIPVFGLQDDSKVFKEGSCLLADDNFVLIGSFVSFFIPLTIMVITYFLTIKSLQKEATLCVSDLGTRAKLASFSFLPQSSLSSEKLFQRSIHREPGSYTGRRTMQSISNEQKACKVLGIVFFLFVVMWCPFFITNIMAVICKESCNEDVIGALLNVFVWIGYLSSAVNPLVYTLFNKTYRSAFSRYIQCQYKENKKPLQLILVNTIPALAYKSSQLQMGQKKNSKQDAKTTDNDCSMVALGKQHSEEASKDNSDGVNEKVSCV
Mu-type opioid receptor, sequence (P35372 whole entry): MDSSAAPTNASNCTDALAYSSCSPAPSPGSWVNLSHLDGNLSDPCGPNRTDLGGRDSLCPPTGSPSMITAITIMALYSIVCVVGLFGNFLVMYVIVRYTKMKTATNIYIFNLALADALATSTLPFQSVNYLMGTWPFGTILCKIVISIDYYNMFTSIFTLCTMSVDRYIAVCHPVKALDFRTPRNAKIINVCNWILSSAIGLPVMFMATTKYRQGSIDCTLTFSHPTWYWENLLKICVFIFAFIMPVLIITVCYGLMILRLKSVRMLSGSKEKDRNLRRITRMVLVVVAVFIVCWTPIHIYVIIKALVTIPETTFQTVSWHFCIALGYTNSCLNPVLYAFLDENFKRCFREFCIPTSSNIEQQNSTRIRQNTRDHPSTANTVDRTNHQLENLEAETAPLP
Cannabinoid receptor 1, sequence (P21554 whole entry): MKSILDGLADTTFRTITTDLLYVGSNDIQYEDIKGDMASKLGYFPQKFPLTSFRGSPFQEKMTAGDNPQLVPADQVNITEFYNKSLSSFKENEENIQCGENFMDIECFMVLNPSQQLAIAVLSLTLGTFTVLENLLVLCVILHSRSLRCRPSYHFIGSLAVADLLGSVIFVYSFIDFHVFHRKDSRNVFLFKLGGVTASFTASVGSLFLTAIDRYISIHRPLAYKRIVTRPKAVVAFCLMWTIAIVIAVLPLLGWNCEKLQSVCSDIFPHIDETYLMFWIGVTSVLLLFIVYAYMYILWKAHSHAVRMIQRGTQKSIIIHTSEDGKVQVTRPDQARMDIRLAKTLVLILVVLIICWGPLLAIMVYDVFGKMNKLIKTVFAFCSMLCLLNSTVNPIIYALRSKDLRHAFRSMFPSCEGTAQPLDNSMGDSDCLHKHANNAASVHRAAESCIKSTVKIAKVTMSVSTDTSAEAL
Vasopressin V1a receptor, sequence (P37288 whole entry): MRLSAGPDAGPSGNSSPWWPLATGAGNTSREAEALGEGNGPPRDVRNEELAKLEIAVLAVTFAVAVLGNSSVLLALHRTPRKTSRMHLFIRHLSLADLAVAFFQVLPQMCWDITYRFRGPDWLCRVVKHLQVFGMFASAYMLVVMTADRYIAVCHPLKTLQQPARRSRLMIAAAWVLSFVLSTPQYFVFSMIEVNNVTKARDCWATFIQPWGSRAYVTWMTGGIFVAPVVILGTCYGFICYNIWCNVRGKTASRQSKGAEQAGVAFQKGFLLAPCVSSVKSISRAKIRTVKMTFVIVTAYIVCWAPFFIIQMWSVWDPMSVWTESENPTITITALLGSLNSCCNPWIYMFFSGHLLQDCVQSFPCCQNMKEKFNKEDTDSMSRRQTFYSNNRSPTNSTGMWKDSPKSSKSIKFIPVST

| Compound | AC50 [1] [µM] | AC50 [2] [µM] | AC50 [3] [µM] | AC50 [4] [µM] | AC50 [5] [µM] | AC50 [6] [µM] | AC50 [7] [µM] | AC50 [8] [µM] | AC50 [9] [µM] | AC50 [10] [µM] | AC50 [11] [µM] | AC50 [12] [µM] |
| --- | --- | --- | --- | --- | --- | --- | --- | --- | --- | --- | --- | --- |
| O=C(O)c1ccc2nc(-c3cc(Cl)cc(Cl)c3)oc2c1 | > 30 | > 30 | > 30 | 22 | > 30 | > 30 | > 30 | 10.3 | > 30 | > 30 | – | – |
| C[C@H](N)C(=O)N[C@@H](CCC(N)=O)C(=O)O [ALANYL GLUTAMINE] (H-Ala-Gln-OH) | > 30 | > 30 | > 30 | – | > 30 | > 30 | > 30 | > 30 | > 30 | > 30 | – | – |
| COc1cc(N)cn[n+]1-c1ccccc1 [AMEZINIUM METILSULFATE] | > 30 | > 30 | > 30 | – | > 30 | > 30 | > 30 | > 30 | > 30 | > 30 | 9.1 | – |
| CNCCc1ccccn1 [BETAHISTINE] | – | > 30 | > 30 | – | > 30 | > 30 | – | > 30 | > 30 | > 30 | > 30 | – |
| CCCCOC(=O)c1ccc(N)cc1 [BUTAMBEN] | – | > 30 | > 30 | – | > 30 | > 30 | – | 26 | > 30 | > 30 | > 30 | – |
| CO/N=C(\C(=O)N[C@@H]1C(=O)N2C(C(=O)O)=C(CSc3nc(C)c(CC(=O)O)s3)CS[C@H]12)c1csc(N)n1 [CEFODIZIME] | > 30 | > 30 | > 30 | – | > 30 | > 30 | > 30 | > 30 | > 30 | > 30 | – | – |
| CO/N=C(\C(=O)N[C@@H]1C(=O)N2C(C(=O)[O-])=C(C[n+]3ccc(N)n3CCO)CS[C@H]12)c1csc(N)n1 [CEFOSELIS] | > 30 | > 30 | > 30 | – | > 30 | > 30 | > 30 | > 30 | > 30 | > 30 | – | – |
| CCCO[C@H]1[C@@H]([C@@H](COCc2ccc(Cl)cc2)OCc2ccc(Cl)cc2)OC(OCC)[C@@H]1O (stereo partly specified) [CLOBENOSIDE] | > 30 | > 30 | 22 | – | > 30 | 27 | > 30 | > 30 | > 30 | > 30 | > 30 | – |
| CCc1ccc(C(=O)C(C)CN2CCCCC2)cc1 (stereo unspecified) [EPERISONE] | – | > 30 | > 30 | > 30 | > 30 | > 30 | – | > 30 | > 30 | > 30 | – | – |
| CCC1(C)CC(=O)NC1=O (stereo unspecified) [ETHOSUXIMIDE] | – | > 10 | > 10 | > 10 | > 30 | > 10 | – | > 30 | > 10 | > 10 | > 10 | > 10 |
| CCC(NC(C)C)C(O)c1ccc(O)c(O)c1 (stereo unspecified) [ISOETHARINE] | > 30 | > 30 | > 30 | > 30 | > 30 | 8.95 | > 30 | > 30 | > 30 | > 30 | > 30 | – |
| CCN(CC)Cc1nccn1-c1ccc([N+](=O)[O-])cc1C(=O)c1ccccc1Cl [NIZOFENONE] | > 30 | > 30 | > 30 | – | > 30 | 6.3 | > 30 | > 30 | > 30 | > 30 | – | – |
| CCOC(=O)O[C@]1(C(=O)COC(=O)CC)CC[C@H]2[C@@H]3CCC4=CC(=O)C=C[C@]4(C)[C@H]3[C@@H](O)C[C@@]21C [PREDNICARBATE] | > 10 | > 10 | – | > 10 | > 30 | > 10 | > 10 | > 30 | > 10 | > 10 | > 10 | > 10 |
| CCC(=O)[C@@]1(C)[C@H](C)C[C@H]2[C@@H]3CCC4=CC(=O)C=C[C@]4(C)[C@H]3[C@@H](O)C[C@@]21C [RIMEXOLONE] | > 10 | > 10 | – | 6.91 | > 30 | > 10 | > 10 | > 30 | > 10 | > 10 | > 10 | > 10 |
| CCCCOC(=O)C(=O)Nc1cccc(-c2nnn[nH]2)c1 [TAZANOLAST] | > 30 | > 30 | > 30 | – | > 30 | > 30 | > 30 | > 30 | > 30 | > 30 | – | – |
| Cc1cccc(Nc2ccncc2S(=O)(=O)NC(=O)NC(C)C)c1 [TORSEMIDE] | – | > 30 | > 10 | > 10 | > 30 | > 10 | > 30 | > 30 | > 30 | > 10 | > 10 | > 30 |
| CC1=C(/C=C/C(C)=C/C=C/C(C)=C/C(=O)Oc2c(C)c(C)c3c(c2C)CCC(C)(CCCC(C)CCCC(C)CCCC(C)C)O3)C(C)(C)CCC1 (stereo unspecified) [TRETINOIN TOCOFERIL] | > 30 | > 30 | 19 | – | > 30 | > 30 | > 30 | > 30 | > 30 | > 30 | – | – |
| CN(C)CCOCC(=O)NC12CC3CC(CC(C3)C1)C2 [TROMANTADINE] | > 30 | > 30 | > 30 | – | > 30 | 11 | > 30 | > 30 | > 30 | > 30 | – | – |
| OCC(CO)N[C@H]1C[C@](O)(CO)[C@@H](O)[C@H](O)[C@H]1O [VOGLIBOSE] | > 30 | > 30 | > 30 | > 30 | > 30 | > 30 | > 30 | > 30 | > 30 | > 30 | – | > 30 |
| SITOSTEROLS | > 30 | > 30 | – | – | > 30 | > 30 | > 30 | > 10 | > 30 | > 30 | > 30 | – |
